In the supplement of paper PMC10307832:

Key:
Assay in all cases: relative viability (nuclei count vs DMSO), 5 days (fraction); higher = more cells survive
NCI-H1395 = test system: NCI-H1395
How it was run: (§1)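 Relative viability divides the nuclei count in treated wells by that in vehicle wells. Lung cancer cell lines were seeded in 1536-well plates, dosed by pin tool the next day, and fixed and stained after 5 days in one step with final 0.05% Triton X-100, 1% formaldehyde and 1 ug/ml Hoechst. Dosing was a single drug or a fixed anchor-drug dose plus five library-drug doses (not always all listed) in √10 steps, and values are medians of duplicate plates imaged at 4×.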

HCC-827 = test system: HCC-827
How it was run: as §1

SK-MES-1 = test system: SK-MES-1
How it was run: as §1

NCI-H1355 = test system: NCI-H1355
How it was run: as §1

LCLC-103H = test system: LCLC-103H
How it was run: as §1

H3255 = test system: H3255
How it was run: as §1

NCI-H2087 = test system: NCI-H2087
How it was run: as §1

UMC-11 = test system: UMC-11
How it was run: as §1

NCI-H1993 = test system: NCI-H1993
How it was run: as §1

NCI-H520 = test system: NCI-H520
How it was run: as §1

NCI-H2405 = test system: NCI-H2405
How it was run: as §1

EMC-BAC-2 = test system: EMC-BAC-2
How it was run: as §1

NCI-H2085 = test system: NCI-H2085
How it was run: as §1

ChaGo-K-1 = test system: ChaGo-K-1
How it was run: as §1

EPLC-272H = test system: EPLC-272H
How it was run: as §1

NCI-H23 = test system: NCI-H23
How it was run: as §1

NCI-H322M = test system: NCI-H322M
How it was run: as §1

NCI-H650 = test system: NCI-H650
How it was run: as §1

LCLC-97TM1 = test system: LCLC-97TM1
How it was run: as §1

NCI-H1944 = test system: NCI-H1944
How it was run: as §1

NCI-H1651 = test system: NCI-H1651
How it was run: as §1

NCI-H1793 = test system: NCI-H1793
How it was run: as §1

HCC-44 = test system: HCC-44
How it was run: as §1

CC(C)Oc1cc(Nc2nc(N[C@@H](C)c3ccc(F)cn3)ncc2Cl)n[nH]1 [AZ23] + CC(=O)Nc1cccc(-n2c(=O)n(C3CC3)c(=O)c3c(Nc4ccc(I)cc4F)n(C)c(=O)c(C)c32)c1 [Trametinib] (partner 0.02 µM)
relative viability (NCI-H1395; first compound 0.03162 µM): 1.06
relative viability (NCI-H1395; first compound 0.3162 µM): 1.06
relative viability (HCC-827; first compound 0.01 µM): 0.456
relative viability (HCC-827; first compound 0.03162 µM): 0.563
relative viability (HCC-827; first compound 0.3162 µM): 0.557
relative viability (SK-MES-1; first compound 0.03162 µM): 0.578
relative viability (SK-MES-1; first compound 0.3162 µM): 0.59
relative viability (NCI-H1355; first compound 0.01 µM): 0.359
relative viability (NCI-H1355; first compound 0.03162 µM): 0.417
relative viability (NCI-H1355; first compound 0.3162 µM): 0.353
relative viability (LCLC-103H; first compound 0.01 µM): 0.741
relative viability (LCLC-103H; first compound 0.03162 µM): 0.7
relative viability (LCLC-103H; first compound 0.3162 µM): 0.655
relative viability (H3255; first compound 0.01 µM): 0.595
relative viability (H3255; first compound 0.03162 µM): 0.609
relative viability (H3255; first compound 0.3162 µM): 0.632
relative viability (NCI-H2087; first compound 0.01 µM): 0.189
relative viability (NCI-H2087; first compound 0.03162 µM): 0.196
relative viability (NCI-H2087; first compound 0.3162 µM): 0.187
relative viability (UMC-11; first compound 0.01 µM): 0.591
relative viability (UMC-11; first compound 0.03162 µM): 0.872
relative viability (UMC-11; first compound 0.3162 µM): 0.729
relative viability (NCI-H1993; first compound 0.01 µM): 0.551
relative viability (NCI-H1993; first compound 0.03162 µM): 0.493
relative viability (NCI-H1993; first compound 0.3162 µM): 0.449
relative viability (NCI-H520; first compound 0.01 µM): 0.853
relative viability (NCI-H520; first compound 0.03162 µM): 0.707
relative viability (NCI-H520; first compound 0.3162 µM): 0.587
relative viability (NCI-H2405; first compound 0.01 µM): 0.572
relative viability (NCI-H2405; first compound 0.03162 µM): 0.673
relative viability (NCI-H2405; first compound 0.3162 µM): 0.599
relative viability (EMC-BAC-2; first compound 0.01 µM): 0.911
relative viability (EMC-BAC-2; first compound 0.03162 µM): 0.912
relative viability (EMC-BAC-2; first compound 0.3162 µM): 0.898
relative viability (NCI-H2085; first compound 0.01 µM): 0.477
relative viability (NCI-H2085; first compound 0.03162 µM): 0.746
relative viability (NCI-H2085; first compound 0.3162 µM): 0.538
relative viability (ChaGo-K-1; first compound 0.01 µM): 0.855
relative viability (ChaGo-K-1; first compound 0.03162 µM): 0.921
relative viability (ChaGo-K-1; first compound 0.3162 µM): 0.979
relative viability (EPLC-272H; first compound 0.03162 µM): 0.267
relative viability (EPLC-272H; first compound 0.3162 µM): 0.274
relative viability (NCI-H23; first compound 0.03162 µM): 0.364
relative viability (NCI-H23; first compound 0.3162 µM): 0.361
relative viability (NCI-H322M; first compound 0.01 µM): 0.454
relative viability (NCI-H322M; first compound 0.03162 µM): 0.481
relative viability (NCI-H322M; first compound 0.3162 µM): 0.565
relative viability (NCI-H650; first compound 0.01 µM): 0.955
relative viability (NCI-H650; first compound 0.03162 µM): 0.99
relative viability (NCI-H650; first compound 0.3162 µM): 0.987
relative viability (LCLC-97TM1; first compound 0.01 µM): 0.238
relative viability (LCLC-97TM1; first compound 0.03162 µM): 0.209
relative viability (LCLC-97TM1; first compound 0.3162 µM): 0.189
relative viability (NCI-H1944; first compound 0.01 µM): 0.438
relative viability (NCI-H1944; first compound 0.03162 µM): 0.398
relative viability (NCI-H1944; first compound 0.3162 µM): 0.386
relative viability (NCI-H1651; first compound 0.01 µM): 0.829
relative viability (NCI-H1651; first compound 0.03162 µM): 0.87
relative viability (NCI-H1651; first compound 0.3162 µM): 0.854
relative viability (NCI-H1793; first compound 0.01 µM): 0.45
relative viability (NCI-H1793; first compound 0.03162 µM): 0.407
relative viability (NCI-H1793; first compound 0.3162 µM): 0.347
relative viability (HCC-44; first compound 0.01 µM): 1.1
relative viability (HCC-44; first compound 0.03162 µM): 0.92
relative viability (HCC-44; first compound 0.3162 µM): 1.05
